Measured values from PubChem BioAssay AID1648 (Sanford-Burnham Center for Chemical Genomics, 2009).
Calls of active or inactive are those of the source. The rule behind the calls is not given here.

These molecules were tested against Serine/threonine-protein kinase mTOR (Homo sapiens) (UniProt P42345) (assay: mTOR FRB domain ligand binding – biophysical, NMR (AID 1648)). Details: NMR binding to FRB domain, chemical shift.
Chain of Serine/threonine-protein kinase mTOR (Homo sapiens) (P42345 2015-2114): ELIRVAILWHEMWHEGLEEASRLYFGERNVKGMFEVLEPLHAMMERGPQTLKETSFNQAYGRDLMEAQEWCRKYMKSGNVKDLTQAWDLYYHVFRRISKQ
With `COc1ccccc1C(=O)Nc1ccccn1` the Kd was > 4 mM (inactive). With `O=C(NC(=S)NN1CCOCC1)c1cccs1` the Kd was > 4 mM (inactive). In the case of `NC(=O)C(=O)Nc1nc(-c2ccccc2)cs1`, the Kd is reported as > 4 mM (inactive). For `O=C1CC(N2CCC(O)CC2)C(=O)N1c1ccc(F)cc1` (stereo not drawn), the Kd was > 4 mM (inactive). For `COC(=O)c1ccc(/C=C2/NC(=S)NC2=O)cc1`, the Kd was > 4 mM (inactive). `CC1(C)C2CC(=O)[C@]3(C)C(CC[C@@]4(C)[C@H](c5ccoc5)OC(=O)[C@H]5O[C@]543)[C@@]2(C)C(=O)C[C@H]1O` (stereo partly drawn) was tested, and the Kd was > 4 mM (inactive). For `CN1CCN(Cc2cccnc2)CC1`, the Kd was > 4 mM (inactive). In the case of `O=C1CC2OCC=C3CN4CC[C@]56c7ccccc7N1C5[C@H]2[C@H]3CC46` (stereo partly drawn), the Kd is reported as > 4 mM (inactive). For `O=C(NC(=S)NC1CCS(=O)(=O)C1)c1ccccc1` (stereo not drawn), the Kd was > 4 mM (inactive). `Cc1cccc(NC(=O)Nc2cc(C)on2)c1` was tested, and the Kd was > 4 mM (inactive). With `NC(CCC(=O)Nc1ccc([N+](=O)[O-])cc1)C(=O)O` (stereo not drawn) the Kd was > 4 mM (inactive). `O=C(O)C1CCN(c2ccc(C(F)(F)F)cn2)CC1` was tested, and the Kd was > 4 mM (inactive). `O=C(Nc1ccccc1CO)c1ccccc1F` was tested, and the Kd was > 4 mM (inactive). In the case of `Cc1cc(C(=O)Nc2sc3c(c2C#N)CCC3)no1`, the Kd is reported as > 4 mM (inactive). For `O=C(O)CCNc1n[nH]c(=O)[nH]c1=O`, the Kd was > 4 mM (inactive). `COc1ncccc1N` was tested, and the Kd was > 4 mM (inactive). For `CCOc1cc(S(=O)(=O)n2nc(C)cc2C)ccc1F`, the Kd was > 4 mM (inactive). With `Cc1ccc(N2CCN(C(=O)c3ccccc3)CC2)c(C)c1` the Kd was > 4 mM (inactive). For `Cn1cc(Cl)c(C(=O)Nc2ccc(F)cc2F)n1`, the Kd was > 4 mM (inactive). `NCc1ccc2occc2c1` was tested, and the Kd was > 4 mM (inactive). With `O=C(O)CSCc1ccc(Cl)cc1` the Kd was > 4 mM (inactive). In the case of `C[n+]1ccn(C/C(N)=N/O)c1`, the Kd is reported as > 4 mM (inactive). For `O=C(O)c1cccc2c1OCCCO2`, the Kd was > 4 mM (inactive). In the case of `Cc1nnc(N2CCc3ccccc3C2)[nH]c1=O`, the Kd is reported as > 4 mM (inactive). With `CCC1(CC)C(=O)NC(=O)N=C1N` the Kd was > 4 mM (inactive). For `O=C(Nc1cccnc1)c1c(F)cccc1F`, the Kd was > 4 mM (inactive). With `O=C(Nc1cccc2ncccc12)c1cccnc1` the Kd was > 4 mM (inactive). With `COc1cnn(-c2ccccc2)c(=O)c1N(C)C` the Kd was > 4 mM (inactive). For `CCC[C@@H]1CCCCN1`, the Kd was > 4 mM (inactive). For `CC(C)=NNC(=O)C(=O)NC(C)(C)C`, the Kd was > 4 mM (inactive). `NC(=O)C1CCN(C(=S)Nc2ccccc2)CC1` was tested, and the Kd was > 4 mM (inactive). With `Fc1ccc(-c2n[nH]c(=S)n2CC2CCCO2)cc1` (stereo not drawn) the Kd was > 4 mM (inactive). With `CNC(=O)COc1cccc2c1CCNC2=O` the Kd was > 4 mM (inactive). `O=C(CSC1=NCCS1)N1CCc2ccccc21` was tested, and the Kd was > 4 mM (inactive). `Cc1nc(-c2ccc(C(=O)O)s2)cs1` was tested, and the Kd was > 4 mM (inactive). `Cc1nnc(C)n1/N=C/c1cccs1` was tested, and the Kd was > 4 mM (inactive). For `CC(=O)Nc1cccc(N2CCCC2=O)c1`, the Kd was > 4 mM (inactive). In the case of `NC(=O)Cc1nc(-c2ccccc2)cs1`, the Kd is reported as > 4 mM (inactive). With `COc1cc(OC)c2c(c1Cl)OC1(C2=O)C(O)=CC(=O)CC1C` (stereo not drawn) the Kd was > 4 mM (inactive). With `S=c1[nH]nc(-c2cccnc2)n1C1CCCCC1` the Kd was > 4 mM (inactive). For `N#Cc1cc2c(nc1SCc1ccncc1)CCC2`, the Kd was > 4 mM (inactive). `CC(=O)N/N=C(\C)c1cccc(N)c1` was tested, and the Kd was > 4 mM (inactive). `O=C(O)c1ccc2nsnc2c1` was tested, and the Kd was > 4 mM (inactive). For `COc1cc(C(C)=O)cc(OC)c1O`, the Kd was > 4 mM (inactive). With `O=C(O)c1ccc(Nc2nncc(=O)[nH]2)cc1` the Kd was > 4 mM (inactive). In the case of `N#Cc1cc2ccccc2nc1N`, the Kd is reported as > 4 mM (inactive). For `COC(=O)C[C@H]1C(C)(C)C(=O)[C@@H]2CC3=C4CC(=O)O[C@@H](c5ccoc5)[C@]4(C)CCC3C1(C)C2=O` (stereo partly drawn), the Kd was > 4 mM (inactive). For `c1cncc(Nc2nc(-c3ccncc3)cs2)c1`, the Kd was > 4 mM (inactive). In the case of `O=C1CCCC2C3CC(CN12)[C@@H]1CCCCN1C3` (stereo partly drawn), the Kd is reported as > 4 mM (inactive). With `CC1=C(CCC(=O)O)c2cc3nc(cc4[nH]c(cc5[nH]c(cc1n2)c(C)c5C(C)O)c(C)c4C(C)O)C(C)=C3CCC(=O)O` (stereo not drawn) the Kd was > 4 mM (inactive). In the case of `S=c1[nH]c2cccnc2[nH]1`, the Kd is reported as > 4 mM (inactive). For `NC(=O)CSc1nnc(-c2ccncc2)o1`, the Kd was > 4 mM (inactive). With `CC(C)(C(N)=O)/[N+]([O-])=C\c1ccccc1` the Kd was > 4 mM (inactive). `Cn1c(=O)c2c(ncn2CCN)n(C)c1=O` was tested, and the Kd was > 4 mM (inactive). With `Cc1cc(Oc2ccccc2)nc(N)n1` the Kd was > 4 mM (inactive). In the case of `CN1CCC=C(C(=O)O)C1`, the Kd is reported as > 4 mM (inactive). For `Cn1c(=O)c2c(ncn2CCNC2=NCCC2)n(C)c1=O`, the Kd was > 4 mM (inactive). `NC12CC3CC(C1)CC(C(=O)O)(C3)C2` was tested, and the Kd was > 4 mM (inactive). In the case of `Cc1ccc2c(c1)=C(c1sc(N)nc1O)C(=O)N=2`, the Kd is reported as > 4 mM (inactive). `COc1ccc2cc3[n+](cc2c1OC)CCc1cc2c(cc1-3)OCO2` was tested, and the Kd was > 4 mM (inactive). In the case of `O=C(CSc1ncn[nH]1)c1ccccc1`, the Kd is reported as > 4 mM (inactive). For `NCCCCNCCCN`, the Kd was > 4 mM (inactive). In the case of `COc1ccc(C)cc1-n1c(-c2ccncc2)n[nH]c1=S`, the Kd is reported as > 4 mM (inactive). With `CC1=NN2C(=N)CC(=O)N=C2S1` the Kd was > 4 mM (inactive). For `NC(=O)CS(=O)(=O)c1ccc2ccccc2c1`, the Kd was > 4 mM (inactive). With `COc1ccccc1NC(N)=S` the Kd was > 4 mM (inactive). `CC(=O)OCC(=O)[C@@]1(O)CCC2C3CC[C@@H]4C[C@H](OC(C)=O)CC[C@]4(C)C3C(=O)C[C@@]21C` (stereo partly drawn) was tested, and the Kd was > 4 mM (inactive). In the case of `O=C(Cc1c(F)cccc1Cl)Nc1cccnc1`, the Kd is reported as > 4 mM (inactive). `NC(=O)c1ccccc1N1CCCCC1` was tested, and the Kd was > 4 mM (inactive). In the case of `Cc1n[nH]c(C)c1N`, the Kd is reported as > 4 mM (inactive). In the case of `CC(=O)Oc1ccc(-c2cc(=O)c3c(OC(C)=O)cc(OC(C)=O)cc3o2)cc1`, the Kd is reported as > 4 mM (inactive). In the case of `OC[C@@H](O)[C@@H](O[C@@H]1O[C@H](CO)[C@@H](O)[C@H](O)[C@H]1O)[C@H](O)[C@@H](O)CO`, the Kd is reported as > 4 mM (inactive). In the case of `CC1(C)Cc2c(c(-c3ccco3)[nH]c(=O)c2C#N)CO1`, the Kd is reported as > 4 mM (inactive). For `CC(=O)Nc1nnc(-c2ccco2)o1`, the Kd was > 4 mM (inactive). `CCc1ccc(C(=O)N2CCCC2)s1` was tested, and the Kd was > 4 mM (inactive). For `NC(=O)c1ccc2c(c1)OCO2`, the Kd was > 4 mM (inactive). `CCn1nnc2c(NCc3ccccn3)ncnc21` was tested, and the Kd was > 4 mM (inactive). With `CC(=O)Nc1nc(-c2cccs2)cs1` the Kd was > 4 mM (inactive). `c1ccc(CCN2CCN(CCc3ccccn3)CC2)nc1` was tested, and the Kd was > 4 mM (inactive). For `CC(C)NC(=O)c1cc(=O)n(C)c(=O)n1C`, the Kd was > 4 mM (inactive). In the case of `NC(=O)CSc1nnc2ccc(-c3ccccn3)nn12`, the Kd is reported as > 4 mM (inactive). For `CCn1ncc(Cl)c1C(=O)Nc1ccncc1`, the Kd was > 4 mM (inactive). `Nc1cccc(-n2cnnn2)c1` was tested, and the Kd was > 4 mM (inactive). `O=C(O)c1cnc2n(c1=O)CCS2` was tested, and the Kd was > 4 mM (inactive). With `CS(=O)(=O)N/N=C/c1cccs1` the Kd was > 4 mM (inactive). `CC1(C)Cn2c(nnc2-c2ccccc2)S1` was tested, and the Kd was > 4 mM (inactive). With `C#CCCCCCCCCCCCC(O)CC(O)COC(C)=O` (stereo not drawn) the Kd was > 4 mM (inactive). In the case of `OCC1CNc2ccccc2O1` (stereo not drawn), the Kd is reported as > 4 mM (inactive).
